{"source": "paper PMC2808337", "about": "“Lactococcus lactis, an Alternative System for Functional Expression of Peripheral and Intrinsic Arabidopsis Membrane Proteins” (PLoS ONE, 2010)", "key": {"[1]": {"target": "T1, AtAATP1 (Arabidopsis thaliana, UniProt Q39002)", "T1 construct": "gene AATP1; N-terminal attB-encoded extension, C-terminal Strep-tag II; in intact Lactococcus lactis NZ9000 cells", "T1 sequence (Q39002 81-624)": "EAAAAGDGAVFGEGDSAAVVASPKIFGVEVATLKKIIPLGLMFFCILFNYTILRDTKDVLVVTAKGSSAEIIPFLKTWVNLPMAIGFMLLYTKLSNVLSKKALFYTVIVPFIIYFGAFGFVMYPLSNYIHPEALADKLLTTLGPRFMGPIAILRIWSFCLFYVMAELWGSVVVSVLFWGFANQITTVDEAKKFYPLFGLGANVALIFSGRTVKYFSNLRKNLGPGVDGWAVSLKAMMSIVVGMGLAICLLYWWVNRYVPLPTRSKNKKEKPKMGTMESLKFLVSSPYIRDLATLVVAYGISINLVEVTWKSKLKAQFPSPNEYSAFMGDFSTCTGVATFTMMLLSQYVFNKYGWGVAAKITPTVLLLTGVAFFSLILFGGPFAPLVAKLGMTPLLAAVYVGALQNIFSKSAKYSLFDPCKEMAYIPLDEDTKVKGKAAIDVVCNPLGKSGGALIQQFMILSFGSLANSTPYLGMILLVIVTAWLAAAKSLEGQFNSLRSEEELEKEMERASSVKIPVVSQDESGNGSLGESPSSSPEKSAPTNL", "test": "radioactive ATP uptake into intact L. lactis cells, filtration", "assay_type": "cell-based", "settings": "50 µM [α-32P]ATP, 50 mM potassium phosphate pH 7.0, 25 °C; empty-vector control; labelled compound"}, "[2]": {"target": "T2, ceQORH (Arabidopsis thaliana, UniProt Q9SV68)", "T2 construct": "mostly monomer, expected mass 34 kDa", "T2 sequence (Q9SV68 1-329)": "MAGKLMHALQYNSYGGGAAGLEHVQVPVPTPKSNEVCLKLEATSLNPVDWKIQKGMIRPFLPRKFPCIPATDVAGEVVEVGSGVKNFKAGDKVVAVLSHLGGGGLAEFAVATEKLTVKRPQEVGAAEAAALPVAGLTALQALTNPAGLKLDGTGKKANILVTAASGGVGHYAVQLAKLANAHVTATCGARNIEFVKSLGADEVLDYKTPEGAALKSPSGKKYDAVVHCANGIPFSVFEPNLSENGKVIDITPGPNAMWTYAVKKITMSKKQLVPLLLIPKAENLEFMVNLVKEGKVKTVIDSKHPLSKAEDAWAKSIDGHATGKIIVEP", "test": "spectrophotometric NBT reduction to formazan, […] nm", "assay_type": "biochemical", "settings": "100 µM NBT, 100 µM NADPH, soybean lipids, 10 mM Tris-HCl pH 8.0, artificial electron acceptor"}}, "data": [{"smiles": "Nc1ncnc2c1ncn2[C@@H]1O[C@H](COP(=O)(O)OP(=O)(O)OP(=O)(O)O)[C@@H](O)[C@H]1O", "note": "[[α-32P] ATP]", "values": [{"measurement": "radioactive ATP uptake into intact L. lactis cells, filtration", "setting": "[1]", "result": "recombinant AtAATP1 protein produced in L. lactis is able to transport ATP"}]}, {"smiles": "NC(=O)C1=CN([C@@H]2O[C@H](COP(=O)(O)OP(=O)(O)OC[C@H]3O[C@@H](n4cnc5c(N)ncnc54)[C@H](OP(=O)(O)O)[C@@H]3O)[C@@H](O)[C@H]2O)C=CC1", "note": "[NADPH]", "values": [{"measurement": "spectrophotometric NBT reduction to formazan, 550 nm", "setting": "[2]; electron donor", "result": "ceQORH protein indeed has NADPH-dependent dehydrogenase activity"}]}, {"smiles": "COc1cc(-c2ccc(-[n+]3nc(-c4ccccc4)nn3-c3ccc([N+](=O)[O-])cc3)c(OC)c2)ccc1-[n+]1nc(-c2ccccc2)nn1-c1ccc([N+](=O)[O-])cc1", "note": "[NBT]", "values": [{"measurement": "spectrophotometric NBT reduction to formazan, 550 nm", "setting": "[2]", "result": "the ceQORH protein, in combination with lipids and NADPH reduces the NBT to formazan"}]}]}
